In paper PMC9476183 (ACS Omega, 2022):
Values joined by “and” are separate entries in the source; they are usually repeats but may differ in a detail not shown here. Equal entries are not always repeated.

Experiments:
[1] = target: T1, recombinant human CYP1A1 (Homo sapiens, UniProt P04798); assay: EROD assay, CYP1A1 inhibition; format: biochemical
T1 sequence (P04798 1-512): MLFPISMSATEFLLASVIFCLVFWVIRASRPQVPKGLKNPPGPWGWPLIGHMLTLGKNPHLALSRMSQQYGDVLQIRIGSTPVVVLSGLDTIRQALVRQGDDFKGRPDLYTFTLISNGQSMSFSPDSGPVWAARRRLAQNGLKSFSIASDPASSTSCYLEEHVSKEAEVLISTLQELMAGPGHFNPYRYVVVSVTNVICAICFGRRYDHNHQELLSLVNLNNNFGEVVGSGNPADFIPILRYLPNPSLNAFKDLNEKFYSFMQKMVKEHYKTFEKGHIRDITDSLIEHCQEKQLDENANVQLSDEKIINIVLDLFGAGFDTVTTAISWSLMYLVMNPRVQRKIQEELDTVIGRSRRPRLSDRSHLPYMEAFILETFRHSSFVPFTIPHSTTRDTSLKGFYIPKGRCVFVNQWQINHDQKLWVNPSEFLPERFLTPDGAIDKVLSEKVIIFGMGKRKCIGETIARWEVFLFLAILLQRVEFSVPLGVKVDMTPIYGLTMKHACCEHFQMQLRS

[2] = target: T2, recombinant human CYP1B1 (Homo sapiens, UniProt Q16678); assay: EROD assay, CYP1B1 inhibition; conditions: IC50 CYP1B1 ± SD, recombinant human enzyme, EROD assay, triplicate
T2 sequence (Q16678 1-543): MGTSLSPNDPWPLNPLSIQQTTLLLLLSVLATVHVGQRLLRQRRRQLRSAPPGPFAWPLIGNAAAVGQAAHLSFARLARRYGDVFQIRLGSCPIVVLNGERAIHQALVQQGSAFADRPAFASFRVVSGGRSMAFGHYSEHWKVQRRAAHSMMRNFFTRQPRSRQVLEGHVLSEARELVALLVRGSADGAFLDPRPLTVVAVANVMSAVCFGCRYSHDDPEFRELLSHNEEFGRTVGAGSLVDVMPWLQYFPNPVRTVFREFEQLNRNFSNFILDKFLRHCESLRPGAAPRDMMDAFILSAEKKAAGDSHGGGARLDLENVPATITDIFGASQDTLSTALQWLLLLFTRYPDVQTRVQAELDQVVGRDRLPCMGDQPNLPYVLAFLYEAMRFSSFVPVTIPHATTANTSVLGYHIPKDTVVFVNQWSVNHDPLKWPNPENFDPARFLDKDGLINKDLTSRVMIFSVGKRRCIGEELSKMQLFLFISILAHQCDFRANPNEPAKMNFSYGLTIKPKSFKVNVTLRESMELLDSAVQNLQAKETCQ

[3] = target: T3, CYP1B1 over CYP1A1 (Homo sapiens, UniProt Q16678); assay: EROD assay, CYP1B1 inhibition; conditions: human
T3 sequence (Q16678 1-543): T2 sequence (Q16678 1-543)

[4] = test system: myeloid leukemia cell lines; conditions: ref [64],[65]; cited from earlier work
[5] = test system: MDA-MB-231; conditions: MDA-MB-231, apoptosis mechanism; ref [66]; cited from earlier work
[6] = test system: orthotopic 4T1 breast cancer models; conditions: by inhibiting tumor-cell platelet aggregation, ref [63]; cited from earlier work
[7] = pH 7.4, selectivity CYP1A1/CYP1B1, ratio of IC50 values

Row | SMILES | IC50 [1] | IC50 [2] | selectivity ratio [3, 7] | selectivity ratio ([3]; pH 7.4, selectivity toward CYP1B1 over CYP1A1, text) | cell death [4] | anticancer activity [5] | breast cancer prevention [6]
1 | O=c1cc(-c2ccccc2)oc2c1ccc1ccccc12 [ANF, α-naphthoflavone] | 20 ± 4 nM |  |  |  |  |  | 
2 | CN(C)CC/C=C1/c2ccccc2Sc2ccc(Cl)cc21 [chlorprothixene] | 490 ± 40 nM | 72 nM and 70 nM | 6.8 | 7 | induce cell death by apoptosis |  | 
3 | COc1ccc(Cl)cc1C(=O)NCCc1ccc(S(=O)(=O)NC(=O)NC2CCCCC2)cc1 [glibenclamide] | > 10000 nM | > 10000 nM |  |  |  |  | 
4 | CC1CCc2c(N3CCC(O)CC3)c(F)cc3c(=O)c(C(=O)O)cn1c23 (stereo not shown) [nadifloxacin] | 2360 ± 200 nM | 1460 nM | 1.61 |  |  | promising anticancer activity | 
5 | CCCSc1nc(N[C@@H]2C[C@H]2c2ccc(F)c(F)c2)c2nnn([C@@H]3C[C@H](OCCO)[C@@H](O)[C@H]3O)c2n1 [ticagrelor] | 3450 ± 390 nM | 2810 ± 900 nM | 1.22 |  |  |  | breast cancer prevention activity
